Laboratory results: paper PMC8226862, “Design, Synthesis and Anticancer Activity of a New Series of N-aryl-N′-[4-(pyridin-2-ylmethoxy)benzyl]urea Derivatives” (Molecules, 2021)

Legend:
[1] = system: A549 (non-small cell lung cancer cell line); test: MTT antiproliferative assay, A549; type: cell-based, human; settings: 96 h incubation
Experimental: (§1) The target compounds were evaluated for their antiproliferative activity against different human cancer cell lines, including A549 (non-small cell lung cancer cell line), MCF-7 (breast cancer cell line), HCT116 (colon cancer cell line), PC-3 (prostate cancer cell line) and HL7702 (human liver normal cell line) by using the MTT assay with sorafenib as the control drug.
(§2) The antiproliferative activities of target compounds were determined using a standard MTT assay. Exponentially growing cells A549 (1.5 × 10^3 cells/well), MCF-7 (2.2 × 10^3 cells/well), HCT-116 (800 cells/well), PC-3 (2.0 × 10^3 cells/well) and HL7702 (5.0 × 10^3 cells/well) were seeded into 96-well plates and incubated for 24 h to allow the cells to attach. Then, a fresh medium containing various concentrations of the candidate compounds was added to each well. The cells were then incubated for 96 h, thereafter MTT assays were performed, and cell viability was assessed at 570 nm by a microplate reader (ThermoFisher Scientific (Shanghai) Instrument Co., Ltd., Shanghai, China). The optical densities (OD) at 570 nm were measured, and the IC50 of the target compounds was calculated by using GraphPad Prism 5.0 software to perform nonlinear fitting with the cell survival rate under different concentrations of the compounds.

[2] = system: HL7702 (human liver normal cell line); test: MTT cytotoxicity assay, HL7702; type: cell-based; settings: L02, HL7702 normal liver cells, 96 h incubation
Experimental: as §1, §2

[3] = system: HCT116 (colon cancer cell line); test: MTT antiproliferative assay, HCT116; type: cell-based, human; settings: 96 h incubation
Experimental: as §1, §2

[4] = system: MCF-7 (breast cancer cell line); test: MTT antiproliferative assay, MCF7; type: cell-based, human; settings: Homo sapiens, MCF7, 96 h, 96 h incubation
Experimental: as §1, §2

[5] = system: PC-3 (prostate cancer cell line); test: MTT antiproliferative assay, PC3; type: cell-based, human; settings: Homo sapiens, 96 h, 96 h incubation
Experimental: as §1, §2

SMILES | IC50 ([1]; Homo sapiens, A549, 96 h) [µM] | melting point [°C] | IC50 [2] [µM] | IC50 ([3]; Homo sapiens, HCT-116, 96 h) [µM] | IC50 [4] [µM] | IC50 [5] [µM] | IC50 [1] [µM] | IC50 [3] [µM]
COc1ccc(NC(=O)NCc2ccc(OCc3nccc(OCC(F)(F)F)c3C)c(OC)c2)cc1 [8e, 1-(3-methoxy-4-((3-methyl-4-(2,2,2-trifluoroethoxy)pyridin-2-yl)methoxy)benzyl)-3-(4-methoxyphenyl)urea] | 29.8 ± 5.09 | 179.5 to 180.3 | > 50 | 28.8 ± 3.11 | > 50 | > 50 |  | 
COc1ccc(CNC(=O)NCc2ccc(OCc3nccc(OCC(F)(F)F)c3C)c(OC)c2)cc1 [8g, 1-(3-methoxy-4-((3-methyl-4-(2,2,2-trifluoroethoxy)pyridin-2-yl)methoxy)benzyl)-3-(4-methoxybenzyl)urea] | > 50 | 153 to 154.2 | > 50 | 7.84 ± 1.4 | > 50 | > 50 |  | 
CCOc1ccc(CNC(=O)NCc2ccc(OCc3nccc(OCC(F)(F)F)c3C)c(OC)c2)cc1 [8h, 1-(4-ethoxybenzyl)-3-(3-methoxy-4-((3-methyl-4-(2,2,2-trifluoroethoxy)pyridin-2-yl)methoxy)benzyl)urea] | 10.9 ± 2.02 | 148.9 to 149.9 | > 50 | 23.3 ± 3.12 | > 50 | > 50 |  | 
COc1cc(CNC(=O)Nc2cccc(C(F)(F)F)c2)ccc1OCc1nccc(OCC(F)(F)F)c1C [8d, 1-(3-methoxy-4-((3-methyl-4-(2,2,2-trifluoroethoxy)pyridin-2-yl)methoxy)benzyl)-3-(3-(trifluoromethyl)phenyl)urea] | 26.5 ± 5.66 | 153.2 to 154.2 | > 50 | 9.44 ± 1.22 | > 50 | > 50 |  | 
COc1cc(CNC(=O)Nc2ccc(C(F)(F)F)cc2)ccc1OCc1nccc(OCC(F)(F)F)c1C [8c, 1-(3-methoxy-4-((3-methyl-4-(2,2,2-trifluoroethoxy)pyridin-2-yl)methoxy)benzyl)-3-(4-(trifluoromethyl)phenyl)urea] | < 5 | 169.9 to 171 | > 50 | 11.4 ± 3.28 | > 50 | > 50 | 4.88 ± 1.94 | 
COc1cc(CNC(=O)Nc2ccc(OC(F)(F)F)cc2)ccc1OCc1nccc(OCC(F)(F)F)c1C [8a, 1-(3-methoxy-4-((3-methyl-4-(2,2,2-trifluoroethoxy)pyridin-2-yl)methoxy)benzyl)-3-(4-(trifluoromethoxy)phenyl)urea] | 5.3 ± 1.45 | 158.8 to 159.3 | > 50 | 7.25 ± 0.87 | > 50 | > 50 |  | 
CCOc1ccc(CNC(=O)N(Cc2ccc(OCc3nccc(OCC(F)(F)F)c3C)c(OC)c2)C2CCN(C)CC2)cc1 [9g, 3-(4-ethoxybenzyl)-1-(3-methoxy-4-((3-methyl-4-(2,2,2-trifluoroethoxy)pyridin-2-yl)methoxy)benzyl)-1-(1-methylpiperidin-4-yl)urea] | 6.04 ± 0.41 | 119 to 121.2 | > 50 | < 3 | 4.23 ± 0.47 | 6.25 ± 0.43 |  | 2.93 ± 0.26
COc1cc(CNC(=O)Nc2cccc([N+](=O)[O-])c2)ccc1OCc1nccc(OCC(F)(F)F)c1C [8f, 1-(3-methoxy-4-((3-methyl-4-(2,2,2-trifluoroethoxy)pyridin-2-yl)methoxy)benzyl)-3-(3-nitrophenyl)urea] | 12.4 ± 0.6 | 168.9 to 170.5 | > 50 | 13.3 ± 2.78 | 13.3 ± 2.27 | 15.9 ± 0.73 |  | 
COc1ccc(NC(=O)N(Cc2ccc(OCc3nccc(OCC(F)(F)F)c3C)c(OC)c2)C2CCN(C)CC2)cc1 [9c, 1-(3-methoxy-4-((3-methyl-4-(2,2,2-trifluoroethoxy)pyridin-2-yl)methoxy)benzyl)-3-(4-methoxyphenyl)-1-(1-methylpiperidin-4-yl)urea] | 15.8 ± 1.51 | 179.1 to 180.8 | > 50 | 12.9 ± 1.59 | 4.65 ± 0.73 | 12.3 ± 1.75 |  | 
